Assay results reported in ChEMBL document CHEMBL4138079, “New cycloartane type-triterpenoids from the areal parts of Caragana sukiensis and their biological activities” (Eur J Med Chem, 2017).

Key:
[1] = tested on: Spodoptera litura; test: Antifeedant activity in Spodoptera litura assessed as pupal mortality after 24 hrs by leaf disk method (reference value: 0%); format: functional
[2] = tested on: Spodoptera litura; test: Antifeedant activity in Spodoptera litura assessed as pupal weight after 24 hrs by leaf disk method (reference value: 0.245 +/- 0.02 g); format: functional
[3] = tested on: Spodoptera litura; test: Antifeedant activity in Spodoptera litura third-instar larvae assessed as increase in feeding deterrence after 24 hrs by leaf disk method; format: functional
[4] = tested on: HeLa; test: Cytotoxicity against human HeLa cells assessed as reduction in cell viability after 48 hrs by MTT assay; format: functional, cell-based
[5] = tested on: A549; test: Cytotoxicity against human A549 cells assessed as reduction in cell viability after 48 hrs by MTT assay; format: functional, cell-based; details: A549, 48 h
[6] = tested on: MCF7; test: Cytotoxicity against human MCF7 cells assessed as reduction in cell viability after 48 hrs by MTT assay; format: functional, cell-based; details: MCF7, 48 h
[7] = tested on: Spodoptera litura; test: Insecticidal activity in Spodoptera litura third-instar larvae assessed as larval mortality at 5 ug/cm2 after 24 hrs by leaf disk method relative to control; format: functional; details: foliar
[8] = tested on: DU-145; test: Cytotoxicity against human DU145 cells assessed as reduction in cell viability after 48 hrs by MTT assay; format: functional, cell-based; details: DU-145, 48 h
[9] = tested on: Spodoptera litura; test: Antifeedant activity in Spodoptera litura third-instar larvae assessed as increase in feeding deterrence by measuring antifeedant index at 5 ug/cm2 after 24 hrs by leaf disk method; format: functional
[10] = tested on: Spodoptera litura; test: Antifeedant activity in Spodoptera litura third-instar larvae assessed as larval duration time after 24 hrs by leaf disk method (reference value: 10.1 +/- 0.1 day); format: functional
[11] = tested on: HEK293; test: Cytotoxicity against human HEK293 cells assessed as reduction in cell viability after 48 hrs by MTT assay; format: cell-based; details: HEK293, 48 h
[12] = tested on: Spodoptera litura; test: Toxicity in Spodoptera litura third-instar larvae assessed as increase in larval mortality after 24 hrs by leaf disk method; format: organism-based; details: in vivo
[13] = tested on: Spodoptera litura; test: Antifeedant activity in Spodoptera litura third-instar larvae assessed as increase in feeding deterrence by measuring antifeedant index at 2.8 ug/cm2 after 24 hrs by leaf disk method; format: functional
[14] = tested on: Spodoptera litura; test: Insecticidal activity in Spodoptera litura third-instar larvae assessed as increase in larval mortality at 2.8 ug/cm2 after 24 hrs by leaf disk method relative to control; format: functional; details: foliar

Structure (SMILES) | mortality [1] [%] | Activity [2] [g] | ED50 [3] [microg/cm2] | IC50 [4] [µM] | IC50 [5] [µM] | IC50 [6] [µM] | mortality at 5 µg/cm2 [7] [%] | IC50 [8] [µM] | Activity_index [9] | Time [10] [days] | IC50 [11] [µM] | LD50 [12] [microg/cm2] | Activity_index [13] | mortality at 2.8 µg/cm2 [14] [%]
CC(=O)O[C@H]1[C@H](O[C@H]2CC[C@]34C[C@]35CC[C@]3(C)[C@@H]([C@@]6(C)CC[C@@H](C(C)(C)O)O6)[C@@H](O)C[C@@]3(C)[C@@H]5C[C@H](O)[C@H]4C2(C)C)OC[C@@H](O)[C@@H]1O | 90.1 | 0.219 | 1.689 | 9.71 | 2.24 | 2.93 | 19.3 | 11.3 | 64.1 | 13.4 | 121 | – | – | –
CC1(C)C[C@@H](O)[C@]2(C)CC[C@]3(C)C(=CC[C@@H]4[C@@]5(C)CCC(=O)[C@](C)(CO)[C@@H]5CC[C@]43C)[C@@H]2C1 | 11.2 | 0.249 | – | 18.6 | 21.2 | 28.7 | 0 | 26 | 21.8 | 11.1 | 95.6 | – | – | –
CC(C)(O)[C@@H]1CC[C@](C)([C@H]2[C@@H](O)C[C@@]3(C)[C@@H]4C[C@H](O)[C@H]5C(C)(C)[C@@H](O[C@@H]6OC[C@@H](O)[C@H](O)[C@H]6O)CC[C@@]56C[C@@]46CC[C@]23C)O1 | 90.9 | 0.212 | 15.05 | 17.4 | 29 | 31.2 | 18.2 | 19.6 | 70.1 | 13.4 | 99.4 | – | – | –
COc1cccc2c1C(=O)c1c(O)c3c(c(O)c1C2=O)C[C@@](O)(C(=O)CO)C[C@@H]3O[C@H]1C[C@H](N)[C@H](O)[C@H](C)O1 [DOXORUBICIN] | – | – | – | 1.09 | 1.95 | – | – | 1.62 | – | – | – | – | – | –
C[C@@H]1C[C@H]([C@H](O)C(C)(C)O)O[C@H]2OC(=O)[C@@]3(C)[C@@H]4CC[C@H]5C(C)(C)C(=O)C=C[C@@]56C[C@@]46CC[C@]3(C)[C@H]21 | 91.3 | 0.226 | 12.239 | 63.3 | 29.4 | 27.2 | 11.3 | 36.1 | 61.2 | 11.9 | 158 | – | – | –
CC1(C)C[C@@H](O)[C@]2(C)CC[C@]3(C)C(=CC[C@@H]4[C@@]5(C)CC[C@H](O)[C@](C)(CO)[C@@H]5CC[C@]43C)[C@@H]2C1 [SOYASAPOGENOL B] | 96.7 | 0.251 | 5.22 | 3.49 | 2.1 | 2.33 | 11.6 | 10.9 | 68.1 | 12.1 | 124 | – | – | –
C[C@@H]1C[C@H]([C@H](O)C(C)(C)O)O[C@H]2O[C@H](O)[C@@]3(C)[C@@H]4CC[C@H]5C(C)(C)[C@@H](O)CC[C@@]56C[C@@]46CC[C@]3(C)[C@H]21 | – | – | 0.59 | 63.8 | 51.1 | 58.2 | 86.7 | 62.1 | 91.8 | – | 123 | 0.84 | – | –
C[C@@H]1C[C@H]([C@H](O)C(C)(C)O)O[C@H]2OC(=O)[C@@]3(C)[C@@H]4CC[C@H]5C(C)(C)C(=O)CC[C@@]56C[C@@]46CC[C@]3(C)[C@H]21 | – | – | 0.67 | 17.8 | 16.3 | 24.8 | 94.6 | 22.4 | 93.6 | – | 79.3 | 0.91 | – | –
C[C@@H]1C[C@H]([C@H](O)C(C)(C)O)O[C@H]2O[C@H](O)[C@@]3(C)[C@@H]4CC[C@H]5C(C)(C)[C@@H](O[C@@H]6OC[C@@H](O)[C@H](O)[C@H]6O)CC[C@@]56C[C@@]46CC[C@]3(C)[C@H]21 | 92.4 | 0.264 | 3.61 | 57 | 37.5 | 43.2 | 19.4 | 59.2 | 59.3 | 11.8 | 79.2 | – | – | –
CC1(C)CC[C@]2(C)CC[C@]3(C)C(=CC[C@@H]4[C@@]5(C)CC[C@H](O)C(C)(C)[C@@H]5CC[C@]43C)[C@@H]2C1 [beta-AMYRIN] | 89.9 | 0.232 | 28.69 | 27.9 | 23.6 | 35.3 | 10.9 | 27.9 | 59.4 | 11.5 | 94.4 | – | – | –
C/C=C(\C)C(=O)O[C@H]1C[C@@H](OC(C)=O)[C@@]2(C(=O)OC)CO[C@H]3[C@@H](O)[C@@](C)([C@]45O[C@@]4(C)[C@H]4C[C@@H]5O[C@@H]5OC=C[C@@]54O)[C@H]4[C@]1(CO[C@]4(O)C(=O)OC)[C@@H]32 [AZADIRACTIN] | – | – | 1.8 | – | – | – | – | – | – | – | – | 0.84 | 99.1 | 100
C[C@@H]1C[C@H]([C@H](O)C(C)(C)O)O[C@H]2O[C@H](O)[C@@]3(C)[C@@H]4CC[C@H]5C(C)(C)C(=O)CC[C@@]56C[C@@]46CC[C@]3(C)[C@H]21 | 88.5 | 0.221 | 1.195 | 55.3 | 36.7 | 38.9 | 11.5 | 53.7 | 56.4 | 12.6 | 167 | – | – | –
